{"source": "paper PMC12655659", "about": "“Population Pharmacokinetics of Radotinib in Healthy Volunteers and Patients with Chronic Myeloid Leukemia” (Pharmaceuticals, 2025)", "key": {"[1]": {"test_system": "patients newly diagnosed with Ph+ CML-CP", "set-up": "method as in PMID 28939746", "conditions": "by 12 months, cited from earlier work"}, "[2]": {"conditions": "cited from earlier work"}, "[3]": {"test": "Population pharmacokinetic model (nonlinear mixed-effects modeling) of radotinib plasma concentrations in healthy volunteers and patients with CML-CP", "format": "in vivo, human", "conditions": "for half-life: human, plasma, oral, read-out: terminal half-life (t1/2), population estimate (converted)", "protocol": "Two clinical PK studies of radotinib were performed in healthy volunteers and patients with CML-CP. The two studies were approved by the institutional review board (IRB) of Severance Hospital and Peking University People’s Hospital (IRB numbers 4-2024-0489 and 2018PHA053, respectively) and were conducted in accordance with the Declaration of Helsinki and the International Council for Harmonization Good Clinical Practice (ICH-GCP) guidelines. All participants provided written informed consent prior to any study-related procedures. The studies were registered at ClinicalTrials.gov (identifiers: NCT06461078 and NCT03722420). The present population PK study was performed using pooled data from two clinical studies.\nThe first study (NCT06461078) included healthy male adult volunteers aged 19 to 55 years, weighing 55 kg or heavier, with a body mass index (BMI) between 18.5 kg/m^2 and 27.0 kg/m^2. Individuals with a history of clinically significant psychiatric or comorbid conditions such as severe hepatic impairment, severe renal impartment, long QT syndrome; a history of gastrointestinal disorders or surgeries that may have affected the absorption of radotinib; or suspected symptoms of acute illness at the time of screening were excluded. Also excluded were individuals with concomitant medications or foods that may have interfered with the study outcomes as well as those with excessive consumption of caffeine, alcohol or tobacco. Individuals were also ineligible if they had participated in other clinical trials within 180 days, donated whole blood within 60 days or blood components within 30 days or received a blood transfusion within 30 days prior to the administration of radotinib. Study participants received a single oral dose of 400 mg radotinib under fasting conditions. Serial blood samples were collected from forearm veins of participants pre-dose and at 0.5, 1, 2, 3, 4, 5, 6, 8, 10, 12, 18, 24, 32 and 48 h post-dose.\nThe second study (NCT03722420) included patients aged 18 years or older with a confirmed diagnosis of Ph+ CML-CP within last 6 months, typical BCR-ABL1 transcript type and normal organ function. Patients with a T315I mutation in the BCR-ABL1 gene; a history of radiotherapy, interferon or other targeted anti-leukemic therapies; or clinically significant comorbidities were excluded. Patients were also ineligible if they had participated in other investigational studies within the past 3 months or were taking therapeutic coumarin derivatives; a moderate or strong CYP3A4 inhibitor or inducer; or medications that may have prolonged the QT interval. Study participants were orally administered 300 mg radotinib twice daily under fasting conditions. Serial blood samples were obtained from forearm veins pre-dose and at 1, 2, 3, 4, 6, 8 and 12 h post-dose on Days 1 and 14.\nAll samples were centrifuged to separate plasma and stored at −70 °C until the measurement of plasma concentrations (Cp) of radotinib. The Cp of radotinib in HVs was measured using high-performance liquid chromatography coupled with tandem mass spectrometric detection (HPLC-MS/MS; Prominence HPLC/UFLC/UFLCXR, Shimadzu, Kyoto, Japan; QTRAP 6500+, SCIEX, Marlborough, MA, USA). An internal standard was radotinib-d6 dissolved in acetonitrile to produce working solutions. The linearity of the bioanalytical method was assessed using a calibration curve computed by a weighted (1/x^2) linear regression from seven standard concentrations (5, 10, 30, 100, 300, 1000 and 2000 ng/mL). The method was validated using concentrations of 5, 15, 160 and 1600 ng/mL for the lower limit of quantitation (LLOQ) and low- (LQC), medium- (MQC) and high-quality controls (HQC), respectively.\nIn patients with CML-CP, the Cp of radotinib was quantified using another HPLC–MS/MS system (LC-20ADXR pump, CTO-20AC column oven, CBM-20A Lite controller and DGU-20A5R degasser, Shimadzu, Kyoto, Japan; API 4000, SCIEX, MA, USA). Glipizide in acetonitrile was used as an internal standard. […]"}, "[4]": {"test": "Preliminary pharmacokinetic assessment in patients with CML-CP", "format": "in vivo", "conditions": "human, plasma, oral, 300 mg twice daily, obtained by doubling the preliminary value of AUC0–12h, read-out: AUC0–24h, previously estimated"}, "patients with CML-CP": {"test_system": "patients with CML-CP", "set-up": "method as in PMID 24705186", "conditions": "400 mg twice daily; 77 patients; at 12 months; cited from earlier work"}, "[5]": {"set-up": "method as in ref 23 = [23]; 23. Lee Y. Kang M. Kim J. Han J. Kim N.Y. Shin J.S. Park M.S. Kim C.O. Jin B.H. Choi M.K. Clinical pharmacokinetic characteristics and the effect of food on radotinib in healthy volunteers Proceedings", "conditions": "healthy volunteers; cited from earlier work"}, "[6]": {"set-up": "method as in ref 24 = [24]; 24. Kim J. Kang M. Lee Y. Yoo S. Han J. Cho D.J. Lee G.Y. Kim N.Y. Jiang Q. Lee J. Pharmacokinetic characteristics of radotinib assessed in Asian patients with chronic myeloid leukemia Proceedings of", "conditions": "patients with CML-CP, cited from earlier work"}}, "note": "Like-named read-outs stand apart in the source and are kept apart here."}
{"molecule": "Cc1ccc(NC(=O)c2ccc(CN3CCN(C)CC3)cc2)cc1Nc1nccc(-c2cccnc2)n1", "note": "[imatinib]", "values": [{"measurement": "patients achieving major molecular response (MMR)", "setting": "[1]; once-daily 400 mg, 20 of 66 patients", "result": 30, "unit": "%"}]}
{"molecule": "Cc1cn(-c2cc(NC(=O)c3ccc(C)c(Nc4nccc(-c5cccnc5)n4)c3)cc(C(F)(F)F)c2)cn1", "note": "[nilotinib]", "values": [{"measurement": "target Ctrough in terms of favorable molecular responses", "setting": "[2]; 400 mg once daily", "result": 500, "unit": "ng/mL"}, {"measurement": "t1/2", "setting": "[2]", "result": 16, "unit": "h"}]}
{"molecule": "Cc1cn(-c2cc(NC(=O)c3ccc(C)c(Nc4nccc(-c5cnccn5)n4)c3)cc(C(F)(F)F)c2)cn1", "note": "[radotinib]", "values": [{"measurement": "CL/F, bootstrap estimate median (95% CI)", "setting": "[3]; bootstrap of 1000 replicates", "result": "23.2 (20.0–26.5) L/h"}, {"measurement": "MTT, bootstrap estimate median (95% CI)", "setting": "[3]; bootstrap of 1000 replicates", "result": "1.86 (1.43–2.27) h"}, {"measurement": "N, bootstrap estimate median (95% CI)", "setting": "[3]; bootstrap of 1000 replicates", "result": "6.34 (4.46–10.6)"}, {"measurement": "Q/F, bootstrap estimate median (95% CI)", "setting": "[3]; bootstrap of 1000 replicates", "result": "126 (88.9–185) L/h"}, {"measurement": "Vc/F age effect, bootstrap estimate median (95% CI)", "setting": "[3]; bootstrap of 1000 replicates", "result": "−0.0127 (−0.0258–−0.003)"}, {"measurement": "Vc/F, bootstrap estimate median (95% CI)", "setting": "[3]; bootstrap of 1000 replicates", "result": "395 (281–526) L"}, {"measurement": "Vp/F, bootstrap estimate median (95% CI)", "setting": "[3]; bootstrap of 1000 replicates", "result": "529 (398–733) L"}, {"measurement": "ka, bootstrap estimate median (95% CI)", "setting": "[3]; bootstrap of 1000 replicates", "result": "1.56 (1.07–3.14) h^−1"}, {"measurement": "σproportional, bootstrap estimate", "setting": "[3]; bootstrap of 1000 replicates", "result": 20.0, "unit": "%"}, {"measurement": "ωCL/F, bootstrap estimate median (95% CI)", "setting": "[3]; bootstrap of 1000 replicates", "result": "0.379 (0.301–0.459)"}, {"measurement": "ωIOV, bootstrap estimate median (95% CI)", "setting": "[3]; bootstrap of 1000 replicates", "result": "0.669 (0.494–0.829)"}, {"measurement": "CL/F slower in CML-CP patients compared with HVs", "setting": "[3]; final population PK model", "result": 39.2, "unit": "%"}, {"measurement": "MTT (mean transit time), population estimate", "setting": "[3]; final population PK model", "result": 1.88, "unit": "h"}, {"measurement": "N (number of transit compartments), population estimate", "setting": "[3]; final population PK model", "result": 6.58}, {"measurement": "estimated slope of negative linear effect of age on Vc/F", "setting": "[3]; final population PK model", "result": "−0.0129", "unit": "per year"}, {"measurement": "ka (first-order absorption rate constant), population estimate", "setting": "[3]; final population PK model", "result": 1.59, "unit": "h⁻¹"}, {"measurement": "negative linear relationship of age with Vc/F", "setting": "[3]; final population PK model", "result": "−0.0129", "unit": "L per year"}, {"measurement": "total V/F (summation of Vc/F and Vp/F)", "setting": "[3]; final population PK model", "result": 902, "unit": "L"}, {"measurement": "σproportional (proportional residual error), population estimate", "setting": "[3]; final population PK model", "result": 20.0, "unit": "%"}, {"measurement": "ωCL/F (interindividual variability of apparent clearance), population estimate", "setting": "[3]; final population PK model", "result": 0.389}, {"measurement": "CL/F, population estimate in healthy volunteers", "setting": "[3]; final population PK model, HVs", "result": 37.9, "unit": "L/h"}, {"measurement": "Vc/F age effect (slope), population estimate", "setting": "[3]; final population PK model, linear, age − 31", "result": "−0.0129"}, {"measurement": "ωIOV (interoccasion variability), population estimate", "setting": "[3]; final population PK model, on Vc/F and Vp/F", "result": 0.698}, {"measurement": "CL/F (apparent clearance), population estimate", "setting": "[3]; final population PK model, typical patient with CML-CP", "result": 23.0, "unit": "L/h"}, {"measurement": "terminal half-life (t1/2), population estimate", "setting": "[3]; healthy volunteers", "result": 18.2, "unit": "h"}, {"measurement": "half-life", "setting": "[3]; 300 mg, patients with CML-CP", "result": 28.8, "unit": "h"}, {"measurement": "half-life", "setting": "[3]; male, 400 mg, healthy volunteers", "result": 17.5, "unit": "h"}, {"measurement": "AUC(0-t)", "setting": "[4]", "result": 24000, "unit": "ng·h/mL"}, {"measurement": "patients achieving major cytogenetic response (MCyR)", "setting": "patients with CML-CP", "result": 65, "unit": "%"}, {"measurement": "patients attaining complete cytogenetic response (CCyR)", "setting": "patients with CML-CP", "result": 47, "unit": "%"}, {"measurement": "patients achieving major molecular response (MMR)", "setting": "[1]; 300 mg twice daily, 37 of 69 patients", "result": 54, "unit": "%"}, {"measurement": "V/F, preliminary value based on NCA", "setting": "[5]", "result": 1315, "unit": "L"}, {"measurement": "t1/2, preliminary value", "setting": "[5]", "result": 17.5, "unit": "h"}, {"measurement": "Cmax, preliminarily assessed value", "setting": "[6]; 300 mg twice daily", "result": "1595 (1143–2393) ng/mL"}, {"measurement": "tmax, preliminarily assessed value", "setting": "[6]; 300 mg twice daily", "result": "2.5 (2.0–3.8) h"}, {"measurement": "t1/2, preliminary value", "setting": "[6]", "result": 25.4, "unit": "h"}]}
